Experimental data from patent publication US20130243720A1, “Iron(II)-Containing A Treatments for Hyperphosphatemia” (priority 2006, published 2013).

Test system: Sprague Dawley (SD) rats
Assay: Effects of compounds for reducing urinary phosphate levels in rats fed treatment diet
Assay type: in vivo, rat
Conditions: male SD rats; for Urinary Phosphate: urine collected on days 5 and 6
Experimental: House male Sprague Dawley (SD) rats were used for the experiments. The rats were placed singly in wire-bottom cages, fed with Purina 5002 diet, and allowed to acclimate for at least 5 days prior to experimental use.
To establish baseline phosphorus excretion, the rats were placed in metabolic cages for 48 hours. Their urine was collected and its phosphorus content analyzed with a Hitachi analyzer to determine phosphorus excretion in mg/day. Any rats with outlying values were excluded; and the remainder of the rats was distributed into groups.
Purina 5002 was used as the standard diet. The compound or compound mixture being tested was mixed with Purina 5002 to result in a final concentration 0.5% (or as indicated in the table) by weight. Cellulose at 0.5% by weight was used as a negative control. For each rat, 200 g of diet was prepared.
Each rat was weighed and placed on the standard diet. After 4 days the standard diet was replaced with the treatment diet (or control diet for the control group). On days 5 and 6, urine samples from the rats at 24 hours (+/−30 minutes) were collected and analyzed. The test rats were again weighed, and any weight loss or gain was calculated. Any remaining food was also weighed to calculate the amount of food consumed per day. A change in phosphorus excretion relative to baseline and cellulose negative control was calculated using Excel program.

[1] = 0.5% of diet, urinary phosphorus excretion relative to baseline and cellulose negative control
[2] = compound mixed with Purina 5002 diet at 0.5% by weight

**Q.** `CC(=O)/C=C(/C)O.CC(=O)/C=C(/C)O.[Fe]` [Fe(II) acetylacetonato] was tested. Which “% Control” value [1] did it give?
**A.** Its value is 55.6%.

**Q.** What about the “Urinary Phosphate” value [2] of the same molecule?
**A.** The value was 10.4 mg/day.

**Q.** `CC(=O)[O-].CC(=O)[O-].[Fe+2]` [Iron(II) acetate, iron(II) acetate] was tested. Which “% Control” value (0.30% of diet, relative to baseline and cellulose negative control) did it give?
**A.** The value was 67.4%.

**Q.** And the “Urinary Phosphate” value (0.30% of diet)?
**A.** Its value is 12.1 mg/day.

**Q.** What about the “% Control” value [1] of the same molecule?
**A.** Its value is 65.9%.

**Q.** What about the “% Control” value (0.5% of diet, urinary phosphorus excretion relative to baseline and cellulose negative control, listed as Iron(II) Acetate) of the same molecule?
**A.** Its value is 69.1%.

**Q.** And the “% Control” value (0.7% of diet, relative to baseline and cellulose negative control)?
**A.** The value was 44.4%.

**Q.** What about the “Urinary Phosphate” value (0.7% of diet) of the same molecule?
**A.** The value was 8.0 mg/day.

**Q.** And the “Urinary Phosphate” value [2]?
**A.** Its value is 12.8 mg/day.

**Q.** What about the “Urinary Phosphate” value (compound mixed with Purina 5002 diet at 0.5% by weight, listed as Iron(II) Acetate) of the same molecule?
**A.** The value was 12.4 mg/day.

**Q.** What does the source list for `O=C([O-])C(=O)[O-].[Fe+2]` [Iron(II) oxalate, iron(II) oxalate]?
**A.** % Control [1]: 89.0%; Urinary Phosphate [2]: 14.8 mg/day

**Q.** Which results are given for `[Fe+2].[O-2]` [Iron(II)oxide, iron(II) oxide]?
**A.** % Control [1]: 104.3%; Urinary Phosphate [2]: 20.2 mg/day

**Q.** Which “% Control” value [1] does the source give for (+)-iron(II) L-ascorbate here?
**A.** Its value is 78.6%.

**Q.** What about the “Urinary Phosphate” value [2] of the same molecule?
**A.** The value was 13.4 mg/day.
